Measurements as given in US20090312521A1 (priority 2004, published 2009).
Values after ≈ are worked out from the molar mass of the structure shown. Non-standard residues stand in square brackets, D forms with d. Residues, ends and D or L forms follow the SMILES beside them. β3hY = N[C@H](CC(=O)O)Cc1ccc(O)cc1; NMeS = CN[C@@H](CO)C(=O)O; β3hS = N[C@@H](CO)CC(=O)O; Ava = NCCCCC(=O)O; GABA = NCCCC(=O)O; Sar = CNCC(=O)O

System: E. coli ATCC 11775
Format: cell-based
Details: ATCC 11775, 24 h
Description: Lyophilized peptides were dissolved in NB to give a concentration of 400 μM and filtered using 0.22 μm filter discs (Millex GV, Durapore). An overnight culture in NB was adjusted to 5×10^6 CFU/mL and inoculated into the micro titer plate wells (10 μL) containing each 100 μL of a serial 2-fold dilution (200-0.4 μM) of the tested peptide in NB. Plates were incubated while gently shaking at 37 ° C. for 24 h. Next, 80 μL suspension of each well was transported into a flat-bottom 96-well plate (Costar). The absorbance was measured at 600 nm using a μQuant micro plate spectrophotometer (Bio-Tek Instruments). All peptides were measured in quadruplo. The peptide with sequence […] (see Otvos Jr, […]; Otvos, B. I.; Hoffmann, […].; Wade, […].; Bulet, P. Protein Sci. 2000, 9, 742) was used as negative control.

SMILES | MIC [µM]
CC[C@H](C)[C@H](NC(=O)[C@@H]1CCCN1C(=O)[C@H](CCCNC(=N)N)NC(=O)[C@@H]1CCCN1C(=O)[C@H](Cc1c[nH]cn1)NC(=O)[C@H](CO)NC(=O)[C@@H](NC(=O)[C@@H]1CCCN1C(=O)[C@H](CCCNC(=N)N)NC(=O)[C@@H]1CCCN1C(=O)[C@H](CO)NC(=O)[C@@H](Cc1ccc(O)cc1)NC(=O)[C@@H]1CCCN1C(=O)[C@H](CCCNC(=N)N)NC(=O)[C@@H]1CCCN1C(=O)[C@H](CCCCN)NC(=O)CN)[C@@H](C)O)C(=O)N[C@@H](CCCNC(=N)N)C(=O)N[C@H](C(=O)O)C(C)C [Peptide 6, GKPRP DYSPRP TSHPR PIRV] (H-GKPRP[dY]SPRPTSHPRPIRV-OH; N-terminus assumed) | 6.3 (≈ 13.9 µg/mL)
CC[C@H](C)[C@H](NC(=O)[C@@H]1CCCN1C(=O)[C@H](CCCNC(=N)N)NC(=O)[C@@H]1CCCN1C(=O)[C@H](Cc1c[nH]cn1)NC(=O)[C@H](CO)NC(=O)[C@@H](NC(=O)[C@@H]1CCCN1C(=O)[C@H](CCCNC(=N)N)NC(=O)[C@@H]1CCCN1C(=O)[C@@H](NC(=O)[C@H](Cc1ccc(O)cc1)NC(=O)[C@@H]1CCCN1C(=O)[C@H](CCCNC(=N)N)NC(=O)[C@@H]1CCCN1C(=O)[C@H](CCCCN)NC(=O)CCCCN)[C@@H](C)O)[C@@H](C)O)C(=O)N[C@@H](CCCNC(=N)N)C(=O)N[C@H](C(=O)O)C(C)C [Peptide 12, AvaKPRP YTPRP TSHPR PIRV] (H-[Ava]KPRPYTPRPTSHPRPIRV-OH; N-terminus assumed) | 6.3 (≈ 14.2 µg/mL)
CC[C@H](C)[C@H](NC(=O)[C@@H]1CCCN1C(=O)[C@H](CCCNC(=N)N)NC(=O)[C@@H]1CCCN1C(=O)[C@H](Cc1c[nH]cn1)NC(=O)[C@H](CO)NC(=O)[C@@H](NC(=O)[C@@H]1CCCN1C(=O)[C@H](CCCNC(=N)N)NC(=O)[C@@H]1CCCN1C(=O)C[C@H](CO)NC(=O)C[C@H](Cc1ccc(O)cc1)NC(=O)[C@@H]1CCCN1C(=O)[C@H](CCCNC(=N)N)NC(=O)[C@@H]1CCCN1C(=O)[C@H](CCCCN)NC(=O)CN)[C@@H](C)O)C(=O)N[C@@H](CCCNC(=N)N)C(=O)N[C@H](C(=O)O)C(C)C [Peptide 11, GKPRP βYβSPRP TSHPR PIRV] (H-GKPRP[β3hY][β3hS]PRPTSHPRPIRV-OH) | 12.5 (≈ 27.8 µg/mL)
CC[C@H](C)[C@H](NC(=O)[C@@H]1CCCN1C(=O)[C@H](CCCNC(=N)N)NC(=O)[C@@H]1CCCN1C(=O)[C@H](Cc1c[nH]cn1)NC(=O)[C@H](CO)NC(=O)[C@@H](NC(=O)[C@@H]1CCCN1C(=O)[C@H](CCCNC(=N)N)NC(=O)[C@@H]1CCCN1C(=O)C[C@H](CO)NC(=O)[C@H](Cc1ccc(O)cc1)NC(=O)[C@@H]1CCCN1C(=O)[C@H](CCCNC(=N)N)NC(=O)[C@@H]1CCCN1C(=O)[C@H](CCCCN)NC(=O)CN)[C@@H](C)O)C(=O)N[C@@H](CCCNC(=N)N)C(=O)N[C@H](C(=O)O)C(C)C [Peptide 10, GKPRP YβSPRP TSHPR PIRV] (H-GKPRPY[β3hS]PRPTSHPRPIRV-OH) | 3.1 (≈ 6.86 µg/mL)
CC[C@H](C)[C@H](NC(=O)[C@@H]1CCCN1C(=O)[C@H](CCCNC(=N)N)NC(=O)[C@@H]1CCCN1C(=O)[C@H](Cc1cnc[nH]1)NC(=O)[C@H](CO)NC(=O)[C@@H](NC(=O)[C@@H]1CCCN1C(=O)[C@H](CCCNC(=N)N)NC(=O)[C@@H]1CCCN1C(=O)[C@H](CO)NC(=O)[C@H](Cc1ccc(O)cc1)NC(=O)[C@@H]1CCCN1C(=O)[C@H](CCCNC(=N)N)NC(=O)[C@@H]1CCCN1C(=O)[C@H](CCCCN)NC(=O)CN)[C@@H](C)O)C(=O)N[C@@H](CCCNC(=N)N)C(=O)N[C@H](C(=O)O)C(C)C [Peptide 1, GKPRP YSPRP TSHPR PIRV, reference compound] (H-GKPRPYSPRPTSHPRPIRV-OH) | 6.3 (≈ 13.9 µg/mL)
CC[C@H](C)[C@H](NC(=O)[C@@H]1CCCN1C(=O)[C@H](CCCNC(=N)N)NC(=O)[C@@H]1CCCN1C(=O)[C@H](Cc1c[nH]cn1)NC(=O)[C@H](CO)NC(=O)[C@@H](NC(=O)[C@@H]1CCCN1C(=O)[C@H](CCCNC(=N)N)NC(=O)[C@@H]1CCCN1C(=O)[C@H](CO)N(C)C(=O)[C@H](Cc1ccc(O)cc1)NC(=O)[C@@H]1CCCN1C(=O)[C@H](CCCNC(=N)N)NC(=O)[C@@H]1CCCN1C(=O)[C@H](CCCCN)NC(=O)CN)[C@@H](C)O)C(=O)N[C@@H](CCCNC(=N)N)C(=O)N[C@H](C(=O)O)C(C)C [Peptide 2, GKPRP Y^MeSPRP TSHPR PIRV] (H-GKPRPY[NMeS]PRPTSHPRPIRV-OH) | 25 (≈ 55.3 µg/mL)
CC[C@H](C)[C@H](NC(=O)[C@@H]1CCCN1C(=O)[C@H](CCCNC(=N)N)NC(=O)[C@@H]1CCCN1C(=O)[C@H](Cc1c[nH]cn1)NC(=O)[C@H](CO)NC(=O)[C@@H](NC(=O)[C@@H]1CCCN1C(=O)[C@H](CCCNC(=N)N)NC(=O)[C@@H]1CCCN1C(=O)[C@H](CO)NC(=O)C[C@H](Cc1ccc(O)cc1)NC(=O)[C@@H]1CCCN1C(=O)[C@H](CCCNC(=N)N)NC(=O)[C@@H]1CCCN1C(=O)[C@H](CCCCN)NC(=O)CN)[C@@H](C)O)C(=O)N[C@@H](CCCNC(=N)N)C(=O)N[C@H](C(=O)O)C(C)C [Peptide 9, GKPRP βYSPRP TSHPR PIRV] (H-GKPRP[β3hY]SPRPTSHPRPIRV-OH) | 3.1 (≈ 6.86 µg/mL)
CC[C@H](C)[C@H](NC(=O)[C@@H]1CCCN1C(=O)[C@H](CCCNC(=N)N)NC(=O)[C@@H]1CCCN1C(=O)[C@H](Cc1c[nH]cn1)NC(=O)[C@H](CO)NC(=O)[C@@H](NC(=O)[C@@H]1CCCN1C(=O)[C@H](CCCNC(=N)N)NC(=O)[C@@H]1CCCN1C(=O)[C@@H](NC(=O)[C@H](Cc1ccc(O)cc1)NC(=O)[C@@H]1CCCN1C(=O)[C@H](CCCNC(=N)N)NC(=O)[C@@H]1CCCN1C(=O)[C@H](CCCCN)NC(=O)CCCN)[C@@H](C)O)[C@@H](C)O)C(=O)N[C@@H](CCCNC(=N)N)C(=O)N[C@H](C(=O)O)C(C)C [Peptide 13, AbuKPRP YTPRP TSHPR PIRV] (H-[GABA]KPRPYTPRPTSHPRPIRV-OH; N-terminus assumed) | 6.3 (≈ 14.1 µg/mL)

Further lines, results first:

MIC [µM] | SMILES
6.3 (≈ 14 µg/mL) | CC[C@H](C)[C@H](NC(=O)[C@@H]1CCCN1C(=O)[C@H](CCCNC(=N)N)NC(=O)[C@@H]1CCCN1C(=O)[C@H](Cc1c[nH]cn1)NC(=O)[C@H](CO)NC(=O)[C@@H](NC(=O)[C@@H]1CCCN1C(=O)[C@H](CCCNC(=N)N)NC(=O)[C@@H]1CCCN1C(=O)[C@@H](NC(=O)[C@H](Cc1ccc(O)cc1)NC(=O)[C@@H]1CCCN1C(=O)[C@H](CCCNC(=N)N)NC(=O)[C@@H]1CCCN1C(=O)[C@H](CCCCN)NC(=O)CNC)[C@@H](C)O)[C@@H](C)O)C(=O)N[C@@H](CCCNC(=N)N)C(=O)N[C@H](C(=O)O)C(C)C [Peptide 15, SarKPRP YTPRP TSHPR PIRV] (H-[Sar]KPRPYTPRPTSHPRPIRV-OH; N-terminus assumed)
3.1 (≈ 6.81 µg/mL) | CC[C@H](C)[C@H](NC(=O)[C@@H]1CCCN1C(=O)[C@H](CCCNC(=N)N)NC(=O)[C@@H]1CCCN1C(=O)[C@H](Cc1c[nH]cn1)NC(=O)[C@H](CO)NC(=O)[C@@H](NC(=O)[C@@H]1CCCN1C(=O)[C@H](CCCNC(=N)N)NC(=O)[C@@H]1CCCN1C(=O)[C@@H](NC(=O)[C@H](Cc1ccccc1)NC(=O)[C@@H]1CCCN1C(=O)[C@H](CCCNC(=N)N)NC(=O)[C@@H]1CCCN1C(=O)[C@H](CCCCN)NC(=O)CN)[C@@H](C)O)[C@@H](C)O)C(=O)N[C@@H](CCCNC(=N)N)C(=O)N[C@H](C(=O)O)C(C)C [Peptide 5, GKPRP FTPRP TSHPR PIRV] (H-GKPRPFTPRPTSHPRPIRV-OH; N-terminus assumed)
3.1 (≈ 6.77 µg/mL) | CC[C@H](C)[C@H](NC(=O)[C@@H]1CCCN1C(=O)[C@H](CCCNC(=N)N)NC(=O)[C@@H]1CCCN1C(=O)[C@H](Cc1c[nH]cn1)NC(=O)[C@H](CO)NC(=O)[C@@H](NC(=O)[C@@H]1CCCN1C(=O)[C@H](CCCNC(=N)N)NC(=O)[C@@H]1CCCN1C(=O)[C@H](CO)NC(=O)[C@H](Cc1ccccc1)NC(=O)[C@@H]1CCCN1C(=O)[C@H](CCCNC(=N)N)NC(=O)[C@@H]1CCCN1C(=O)[C@H](CCCCN)NC(=O)CN)[C@@H](C)O)C(=O)N[C@@H](CCCNC(=N)N)C(=O)N[C@H](C(=O)O)C(C)C [Peptide 3, GKPRP FSPRP TSHPR PIRV] (H-GKPRPFSPRPTSHPRPIRV-OH; N-terminus assumed)
